Measured values taken from paper PMC6581923 (Journal of Molecular Neuroscience, 2018).
Where two headings read alike, the source gives them in different places.

Assays:
[1] = biological target: T1, PAC1-R (Homo sapiens, UniProt P41586); experiment: cAMP accumulation assay in PAC1-CHO cells; assay type: cell-based
T1 construct: expressed in transfected cells; host or cells: PAC1-CHO cells (CHO cells expressing PAC1-R); That they are transfected is inferred from the cell line's name
T1 sequence (P41586 21-468): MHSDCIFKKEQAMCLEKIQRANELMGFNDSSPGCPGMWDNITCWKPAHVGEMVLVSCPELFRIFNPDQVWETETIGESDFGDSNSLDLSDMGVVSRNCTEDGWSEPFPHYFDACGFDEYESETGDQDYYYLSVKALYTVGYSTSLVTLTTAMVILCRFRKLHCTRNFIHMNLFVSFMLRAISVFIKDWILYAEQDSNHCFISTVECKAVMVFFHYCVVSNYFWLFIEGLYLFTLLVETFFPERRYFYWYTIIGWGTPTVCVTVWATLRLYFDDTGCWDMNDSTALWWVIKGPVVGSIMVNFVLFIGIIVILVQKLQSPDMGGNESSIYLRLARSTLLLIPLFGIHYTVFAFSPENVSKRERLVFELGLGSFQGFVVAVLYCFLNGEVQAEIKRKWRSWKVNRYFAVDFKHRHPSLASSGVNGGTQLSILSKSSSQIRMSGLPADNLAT
Experimental: PAC1-CHO cells cultured in Dulbecco’s Modified Eagle’s Medium (DMEM) at 37 °C were scraped off the surface with rubber policeman, washed twice with PBS and the density of the cells was adjusted to 2 × 10^6 /mL. Peptides were added to 500 uL cells suspension with the corresponding varying working concentrations of the detected factor. After incubation at 37 °C for 5-10 min cells were harvested and the lysates were subjected to cAMP quantification using the enzyme immunoassay kit for cAMP (Biyuntian, Shanghai, China), following the manufacturer’s instructions. Protein concentration of each sample was determined using BCA assay, and the cAMP level of each sample was calculated following the formula: cAMP level (pmol/mg protein) = cAMP concentration (pmol/mL)/protein concentration (mg/mL). The cAMP level in each sample was plotted as the percentage (%) of the maximal cAMP level in cells treated with PACAP27 versus the logarithmic value of the peptide concentrations. All experiments were run with at least four parallel samples and were repeated three times.
The data are means ± SEM of four experiments

[2] = system: retina (BCCAO-induced retinopathy); experiment: Number of cells in retinal nuclear layers and GCL after BCCAO, eye drops; assay type: in vivo, rat (male); details: eye drops 1 μg/drop, twice a day, five days, vs BCCAO-induced degenerated retinas, 14 days
Experimental: Adult male rat litters were housed in the animal facility in individual cages in a 12 h light-dark cycle with food and water ad libitum. Animal housing, care and application of experimental procedures were in accordance with institutional guidelines under approved protocols (No: BA02/2000–26/2017, University of Pecs). Under isoflurane anesthesia, common carotid arteries were exposed on both sides through a midline incision and then ligated with a 3–0 filament. A group of animals (sham group) underwent all steps of the operating procedure except ligation of the carotid arteries. Immediately following the operation, the right eye of the animals was treated with derivatives of PACAP (PACAP-TAT /n = 17/ or VIP-TAT /n = 17/) eye drops (1 μg/drop). Dose and schedule of the eye drop treatments were based on our previous experiments (Werling et al. [2016]). In the experiment for histological analysis, the different derivatives were dissolved in benzalkonium solution for ophthalmic use (solutio ophthalmica cum benzalkonio (SOCB)). The left eye, serving as a control, was treated with vehicle containing neither PACAP-TAT nor VIP-TAT. Animals were treated for five consecutive days, twice a day with one drop of drug, under brief isoflurane anesthesia (max. 5 min).
Fourteen days after the operation, rats (n = 10 SHAM and n = 24 BCCAO) were killed with anesthetic and the eyes were processed for histology. The eyes were removed and the retinas were solved in phosphate buffered saline (PBS), fixed in 4% paraformaldehyde dissolved in 0.1 M phosphate buffer (PB) (Sigma, Budapest, Hungary) and embedded in Durcupan ACM resin (Sigma, Budapest, Hungary). Retinas were cut at 2 μm and stained with toluidine blue dye (Sigma, Hungary). Sections were mounted in DPX medium (Sigma, Hungary) and photographs were taken with a digital CCD camera using the Spot program. Central retinal areas within 1 mm from the optic nerve were used (n = 5 measurements from one tissue block). The following parameters were measured: (i) cross-section of the retina from the outer limiting membrane (OLM) to the inner limiting membrane (ILM), (ii) the width of individual retinal layers (outer nuclear layer [ONL], outer plexiform layer [OPL], inner nuclear layer [INL], inner plexiform layer [IPL]), (iii) the number of cells/100 μm section length in the GCL, and the (iv) number of cells/[…]. Results are presented as mean ± SEM. Statistical comparisons were made using the two-way ANOVA test followed by Tukey’s post hoc analysis.
(§1) Fig. 5 Quantification of the number of cells/100 μm GCL length (a), the number of cells/500 μm^2 ONL (b) and INL (c) areas in SHAM+SOCB, in SHAM+PACAP-TAT, in BCCAO+SOCB, and in BCCAO+PACAP-TAT animals. Statistical significance (*p < 0.05 vs. SHAM+SOCB retinas, #p < 0.05 vs. BCCAO+SOCB retinas) was calculated by two-way ANOVA followed by Bonferroni’s post hoc test
as §1, with “Fig. 7” for “Fig. 5”, “in SHAM+VIP-TAT,” for “in SHAM+PACAP-TAT,”, “in BCCAO+VIP-TAT” for “in BCCAO+PACAP-TAT”

[3] = system: PAC1 receptor; set-up: method as in 2 sources, one per row (each row's own in cited_ref): ref Yu et al. [2014] ||| ref Vaudry et al. [2009]; details: vs VIP, ref Yu et al. [2014], cited from earlier work
Description: The retinoprotective effects of PACAP are well-documented and have been proven in different injury models, such as excitotoxic, ischemic, UV light-induced, traumatic, diabetic and oxygen-induced injuries (Atlasz et al. [2008], [2011], [2016]; Kvarik et al. [2016]; Shioda et al. [2016]; Szabadfi et al. [2016]; Vaczy et al. [2016]). […] P ...

CC[C@H](C)[C@H](NC(=O)[C@H](CO)NC(=O)[C@H](CC(N)=O)NC(=O)[C@H](CC(C)C)NC(=O)[C@H](Cc1ccc(O)cc1)NC(=O)[C@H](CCCCN)NC(=O)[C@H](CCCCN)NC(=O)[C@@H](NC(=O)[C@H](C)NC(=O)[C@H](CCSC)NC(=O)[C@H](CCC(N)=O)NC(=O)[C@H](CCCCN)NC(=O)[C@H](CCCNC(=N)N)NC(=O)[C@H](CC(C)C)NC(=O)[C@H](CCCNC(=N)N)NC(=O)[C@@H](NC(=O)[C@H](Cc1ccc(O)cc1)NC(=O)[C@H](CC(N)=O)NC(=O)[C@H](CC(=O)O)NC(=O)[C@@H](NC(=O)[C@H](Cc1ccccc1)NC(=O)[C@@H](NC(=O)[C@H](C)NC(=O)[C@H](CC(=O)O)NC(=O)[C@H](CO)NC(=O)[C@@H](N)Cc1c[nH]cn1)C(C)C)[C@@H](C)O)[C@@H](C)O)C(C)C)C(=O)N[C@@H](CC(C)C)C(=O)N[C@@H](CC(N)=O)C(=O)NCC(=O)N[C@@H](CCCNC(=N)N)C(=O)N[C@@H](CCCCN)C(=O)N[C@@H](CCCCN)C(=O)N[C@@H](CCCNC(=N)N)C(=O)N[C@@H](CCCNC(=N)N)C(=O)N[C@@H](CCC(N)=O)C(=O)N[C@@H](CCCNC(=N)N)C(=O)N[C@@H](CCCNC(=N)N)C(=O)N[C@@H](CCCNC(=N)N)C(=O)N1CCC[C@H]1C(=O)N[C@@H](CCC(N)=O)C(=O)O [VIP-TAT]
EC50 as fraction of the EC50 of VIP ([1]; VIP-TAT vs VIP): about 1/200
Effect of TAT-tagging on activation of PAC1-R (cAMP), in words ([1]; tagged vs untagged peptide): enhanced the activity of VIP on the activation of PAC1-R
Number of cells in the GCL/100 μm after BCCAO [2]: reduced cell loss in almost all nuclear layers, except in the ONL/500 μm2
Number of cells in the INL/500 μm2 after BCCAO [2]: reduced cell loss in almost all nuclear layers, except in the ONL/500 μm2
Activity on / affinity for PAC1 receptor relative to VIP [3]: higher activity on the activation of PACAP preferring PAC1receptor than VIP
Activity on / affinity for PAC1 receptor relative to VIP ([3]; listed as VIP bound to TAT peptide): higher affinity for PAC1-R
